Results on 15 compounds are retold here after patent publication US5597845A, “Substituted alkyldiamine derivatives” (Merrell Pharmaceuticals Inc., priority 1994, dated 1997).

Usually IC50 stands for the concentration at which inhibition is half-maximal. A low value points to inhibition by little substance.

Where only a bound is given, the exact number is not on record here.

One assay has as its target T1, NK1 receptor (Cavia porcellus, UniProt P30547).
T1 construct: evaluated in guinea pig lungs; tissue Keystone Biologicals, Cleveland, Ohio; host or cells: guinea pig lung
In words: Antagonism of iodinated tachykinin binding: NK1 receptor affinity in guinea pig lungs (125I-Bolton Hunter Lys-3 labeled substance P). Particulars: 125I-substance P 0.1 nM, 90 min room temperature, mean of several experiments. On the procedure: (§1) The NK1 receptor affinity of proposed tachykinin antagonists was evaluated in guinea pig lungs (Keystone Biologicals, Cleveland, Ohio) and affinity for the NK2 receptor evaluated in HSKR-1 cells (which are mouse 3T3 fibroblasts expressing the human jejunal NK2 receptor). Tissues or cells were homogenized with a Polytron in 15 volumes of 50 mM Tris-HCl buffer (pH 7.4, 4° C.) and centrifuged. The pellet was resuspended in Tris-HCl buffer and was centrifuged; the pellet was washed twice by resuspension. The final pellet was resuspended at a concentration of 40 mg/ml for tissues and 20 mg/ml for cells in incubation buffer and remained at room temperature for at least 15 min prior to use. Receptor binding was initiated by addition of 250 ul membrane preparation in duplicate to 0.1 nM of the following radioligands: ^125 I-Bolton Hunter Lys-3 labeled substance P and ^125 iodohistidyl-1-neurokinin A; in a final volume of 500 ul of buffer containing 50 mM Tris-HCl (pH 7.4 at room temperature), 0.1% bovine serum albumin, 2 mM MnCl2, 40 ug/ml bacitracin, 4 μg/ml leupeptin and chymostatin, 1 μM thiorphan and various doses of the putative tachykinin antagonists. Incubations were performed at room temperature for 90 min (NK1 receptor assays) or 2 hr (NK2 receptor assay); binding was terminated by addition of 50 mM Tris-HCl buffer (pH 7.4, 4° C.) and filtration under vacuum through GF/B filters presoaked with 0.1% polyethyleneimine (NK, receptor assays) or 0.5% bovine serum albumin (NK2 receptor assay). Filter bound radioactivity was quantitated in a gamma counter. Nonspecific binding was defined as binding in the presence of 1 μM substance P or neurokinin A. Specific binding was calculated by subtracting nonspecific binding from total binding. Competition of iodinated SP or NKA binding by test compounds or standards was expressed as a percentage of this maximum competition. IC50 values (concentration required to inhibit 50% of receptor binding) were generated for each of the test compounds by nonlinear regression using an iterative curve fitting program (GraphPAD Inplot, San Diego, Calif.).
(§2) IC50 values for some of the compounds of the present invention are found in Table 1 and represent the mean of several experiments.

For assay [1], the target named is T2, human jejunal NK2 receptor (Homo sapiens, UniProt P21452).
T2 construct: expressed in transfected cells; host or cells: HSKR-1 cells (mouse 3T3 fibroblasts)
T2 sequence (P21452 1-398): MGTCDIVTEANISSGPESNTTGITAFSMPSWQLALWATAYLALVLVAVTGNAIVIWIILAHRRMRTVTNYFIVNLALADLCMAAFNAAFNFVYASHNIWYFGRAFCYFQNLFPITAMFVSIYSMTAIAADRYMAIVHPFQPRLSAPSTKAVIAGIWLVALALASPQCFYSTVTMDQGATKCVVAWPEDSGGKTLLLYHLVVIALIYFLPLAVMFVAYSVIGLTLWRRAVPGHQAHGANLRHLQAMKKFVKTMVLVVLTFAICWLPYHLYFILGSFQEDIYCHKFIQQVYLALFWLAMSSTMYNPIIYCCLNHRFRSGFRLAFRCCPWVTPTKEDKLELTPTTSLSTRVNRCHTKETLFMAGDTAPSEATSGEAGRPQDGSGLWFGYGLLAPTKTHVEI
In words: Antagonism of iodinated tachykinin binding: NK2 receptor affinity in HSKR-1 cells (125 iodohistidyl-1-neurokinin A). The following applies: HSKR-1 cells (mouse 3T3 fibroblasts expressing human jejunal NK2 receptor); 125I-neurokinin A 0.1 nM; 2 hr room temperature; mean of several experiments. As to the method:
as §1, §2

T1 sequence (P30547 whole entry): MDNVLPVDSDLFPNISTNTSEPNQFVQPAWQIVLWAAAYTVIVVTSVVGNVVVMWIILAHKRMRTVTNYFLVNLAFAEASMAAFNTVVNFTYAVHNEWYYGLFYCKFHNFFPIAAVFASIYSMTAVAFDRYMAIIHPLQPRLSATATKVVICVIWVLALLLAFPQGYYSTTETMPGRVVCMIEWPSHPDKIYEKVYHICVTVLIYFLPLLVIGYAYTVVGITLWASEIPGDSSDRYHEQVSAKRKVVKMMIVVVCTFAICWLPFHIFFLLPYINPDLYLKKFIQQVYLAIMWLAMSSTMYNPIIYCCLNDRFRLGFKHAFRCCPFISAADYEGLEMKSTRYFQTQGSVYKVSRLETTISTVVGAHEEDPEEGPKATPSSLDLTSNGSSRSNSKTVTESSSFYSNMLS

For `COC(=O)[C@H](Cc1c[nH]c2ccccc12)NCCN(C(=O)OC(C)(C)C)[C@@H](Cc1ccc2ccccc2c1)C(=O)N(C)Cc1ccccc1` [Compound No. 15, (S)-N-Benzyl-N-methyl-2-[[(S)-2-(1H-indol-3-yl)-1-carboxymethyl-ethylamino]-N'-(t-butoxycarbonyl)ethylamino]-3-(naphth-2-yl)-propionamide], the values for the IC50 (on NK1 receptor; in assay [1]) were greater than 10 µM and 2.56 µM, respectively.

Regarding `COC(=O)[C@H](Cc1c[nH]c2ccccc12)NCCN[C@@H](Cc1ccccc1)CN(C)C(=O)c1cc(OC)c(OC)c(OC)c1` [Compound No. 10, N-Methyl-N-[(S)-2-[[(S)-2-(1H-indol-3-yl)-1-carboxymethyl-ethylamino]-ethylamino]-3-phenyl-propyl]-(3,4,5-trimethoxy)benzamide], the IC50 on NK1 receptor worked out at 0.631 µM; in assay [1], 2.56 µM.

`CN(Cc1ccccc1)C(=O)[C@H](Cc1ccccc1)NCCN[C@@H](Cc1c[nH]c2ccccc12)C(=O)O` [Compound No. 16, (S)-N-Benzyl-N-methyl-2-[[(S)-2-(1H-indol-3-yl)-1-carboxy-ethylamino]-ethylamino]-3-phenyl-propionamide]: the IC50 was 3.8 µM on NK1 receptor and 1.58 µM in assay [1].

Regarding `COC(=O)[C@H](Cc1c[nH]c2ccccc12)NCCN[C@@H](Cc1ccc2ccccc2c1)C(=O)N(C)Cc1ccccc1` [Compound No. 5], the IC50 on NK1 receptor turned out to be 0.0781 µM; in assay [1], 0.284 µM.

Turning to `COC(=O)[C@H](Cc1c[nH]c2ccccc12)NCCN[C@@H](Cc1ccccc1)C(=O)N(C)Cc1ccccc1` [Compound No. 6, (S)-N-Benzyl-N-methyl-2-[[(S)-2-(1H-indol-3-yl)-1-carboxymethyl-ethylamino]-ethylamino]-3-phenyl-propionamide], the IC50 came out at 0.294 µM on NK1 receptor and 0.228 µM in assay [1].

For the compound `COC(=O)[C@@H](NCCN[C@@H](Cc1ccccc1)C(=O)N(C)Cc1ccccc1)c1ccccc1` [Compound No. 13, (S)-N-Benzyl-N-methyl-2-[[(S)-1-phenyl-1-carboxymethyl-methylamino]-ethylamino]-3-phenyl-propionamide], the IC50 on NK1 receptor was 2.41 µM; in assay [1] it was 4.71 µM.

In the case of `COC(=O)[C@H](Cc1c[nH]c2ccccc12)NCCN[C@@H](Cc1ccc2ccccc2c1)C(=O)N(C)Cc1ccc(Cl)c(Cl)c1` [Compound No. 2, (S)-N-(3,4-Dichlorobenzyl)-N-methyl-2-[[(S)-2-(1H-indol-3-yl)-1-carboxymethyl-ethylamino]-ethylamino]-3-(naphth-2-yl)-propionamide], the IC50 on NK1 receptor is 0.0615 µM; in assay [1], 0.632 µM.

Regarding `COC(=O)[C@@H](Cc1c[nH]c2ccccc12)NCCN[C@@H](Cc1ccccc1)C(=O)N(C)Cc1ccccc1` [Compound No. 3, (S)-N-Benzyl-N-methyl-2-[[(R)-2-(1H-indol-3-yl)-1-carboxymethyl-ethylamino]-ethylamino]-3-phenyl-propionamide], the figures for the IC50 (at NK1 receptor; in assay [1]) were 0.929 µM and 0.215 µM, respectively.

With `COC(=O)[C@H](Cc1c[nH]c2ccccc12)NCCN[C@@H](Cc1ccccc1)C(=O)N(C)Cc1cc(OC)c(OC)c(OC)c1` [Compound No. 8, (S)-N-(3,4,5-Trimethoxybenzyl)-N-methyl-2-[[(S)-2-(1H-indol-3-yl)-1-carboxymethyl-ethylamino]ethylamino]-3-phenyl-propionamide], the IC50 at NK1 receptor is 0.711 µM; in assay [1], 1.99 µM.

For `CN(Cc1ccccc1)C(=O)[C@H](Cc1ccccc1)NCCN[C@@H](Cc1c[nH]c2ccccc12)C(N)=O` [Compound No. 7, (S)-N-Benzyl-N-methyl-2-[[(S)-2-(1H-indol-3-yl)-1-carboxylic acid amide-ethylamino]-ethylamino]-3-phenyl-propionamide], the IC50 at NK1 receptor was 0.472 µM; in assay [1] it was 0.211 µM.

As to `CC(Cc1c[nH]c2ccccc12)NCCN[C@@H](Cc1ccccc1)C(=O)N(C)Cc1ccccc1` (mixture of isomers) [Compound No. 11, (S)-N-Benzyl-N-methyl-2-[[(R and S)-2-(1H-indol-3-yl)-1-methyl-ethylamino]-ethylamino]-3-phenyl-propionamide], the IC50 is 0.953 µM at NK1 receptor and 0.131 µM in assay [1].

For the compound `COC(=O)[C@H](Cc1c[nH]c2ccccc12)NCCN[C@@H](Cc1ccccc1)C(=O)N(C)Cc1ccccc1OC` [Compound No. 4, (S)-N-(2-Methoxybenzyl)-N-methyl-2-[[(S)-2-(1H-indol-3-yl)-1-carboxymethyl-ethylamino]-ethylamino]-3-phenyl-propionamide], the IC50 turned out to be 0.146 µM on NK1 receptor and 0.271 µM in assay [1].

Turning to `COC(=O)[C@H](Cc1ccccc1)NCCN[C@@H](Cc1ccccc1)C(=O)N(C)Cc1ccccc1` [Compound No. 12, (S)-N-Benzyl-N-methyl-2-[[(S)-2-phenyl-1-carboxymethyl-ethylamino]-ethylamino]-3-phenyl-propionamide], the IC50 at NK1 receptor is 1.43 µM; in assay [1] it was 1.44 µM.

With `COC(=O)[C@H](Cc1c[nH]c2ccccc12)NCCN[C@@H](Cc1ccccc1)CN(C)C(=O)c1ccccc1` [Compound No. 14, N-Methyl-N-[(S)-2-[[(S)-2-(1H-indol-3-yl)-1-carboxymethyl-ethylamino]-ethylamino]-3-phenyl-propyl]-benzamide], the IC50 on NK1 receptor is 10 µM; in assay [1] it was 1.22 µM.

`CN(Cc1ccccc1)C(=O)[C@H](Cc1ccccc1)NCCNCCc1c[nH]c2ccccc12` [Compound No. 9]: the IC50 on NK1 receptor turned out to be 0.778 µM; in assay [1], 0.114 µM.
